The source of these data is US20100216779A1 (GLAXOSMITHKLINE LLC, priority 2007, published 2010).

The subject of data set [1] is BT474 cell tumors (breast carcinoma cell line). Description: In vivo efficacy, BT474 tumor bearing mice. Further details: species or system mouse. The protocol:
(§1) In addition to the LISN xenograft efficacy studies, Example 57 has also been assessed in vivo in two other mouse models of cancer, including: Colo-205 tumor bearing mice (colon carcinoma cell line) and BT474 tumor bearing mice (breast carcinoma cell line). Forty female nude mice bearing Colo-205 tumors (average tumor size of 200 mm3) were randomized into five groups of eight mice and dosed with either vehicle (20% SBE pH3.5) or Example 57 at 100, 30, 10 mg/kg QD or 30 mg/kg BID for 21 days. The groups of mice dosed with the higher doses of Example 57 (100 mg/kg QD and 30 mg/kg BID) lost greater than 20% body weight within 10 days of dosing so were taken off the study and allowed to recover. […] The higher doses of 100 mg/kg QDx10 and 30 mg/kg BIDx10 achieved 72 and 49% tumor growth inhibition respectively.
Due to the body weight loss seen with the higher doses in the Colo-205 xenograft efficacy study, the dosing regime was altered for the follow up BT474 study. Forty female nude mice bearing subcutaneous BT474 cell tumors (average tumor size of 200 mm3) were randomized into five groups each containing eight mice and dosed with either vehicle (20% SBE pH3.5) or Example 57 at 60, 30 or 15 mg/kg QD or 15 mg/kg BID for 21 days. Note the maximal QD dose was reduced from 100 mg/kg to 60 mg/kg and the BID dose reduced from 30 mg/kg to 15 mg/kg. In addition to these changes the mice in this study were given weekend holidays from dosing.

Data set [2] has as its system Colo-205 tumors (colon carcinoma cell line). Nature of the data set: In vivo efficacy, Colo-205 tumor bearing mice. Further details: species or system mouse. As for the experimental part: as §1

Turning to `COc1cc(N2CCC(N3CCN(CCF)CC3)CC2)ccc1Nc1nccc(-c2c(-c3cccc(C(=O)Nc4c(F)cccc4F)c3)nc3ccccn23)n1` [Example 57, N-(2,6-difluorophenyl)-3-[3-(2-{[4-{4-[4-(2-fluoroethyl)-1-piperazinyl]-1-piperidinyl}-2-(methyloxy)phenyl]amino}-4-pyrimidinyl)imidazo[1,2-a]pyridin-2-yl]benzamide], the tumor growth inhibition is listed as 54% in data set [1] (BT474, 15 mg/kg BIDx21, weekend holidays from dosing); 37% in data set [1] (BT474, 30 mg/kg QDx21, weekend holidays from dosing); 37% in data set [1] (BT474, 60 mg/kg QDx21, weekend holidays from dosing); 16% in data set [1] (BT474, third QDx21 dose group (15 mg/kg QD per study design), weekend holidays from dosing); 17% in data set [2] (Colo-205, 10 mg/kg QDx21); 49% in data set [2] (Colo-205, 30 mg/kg BIDx10). For the same compound, the tumor growth inhibition stood at 40% in data set [2] (Colo-205, 30 mg/kg QDx21) and 72% in data set [2] (Colo-205, 100 mg/kg QDx10). Besides, the body weight loss entry in data set [1] (BT474, all groups) is given as “no body weight loss”; in data set [2] (Colo-205, 30 and 10 mg/kg QDx21) it was “no body weight loss”. For the same compound, in data set [2] (Colo-205, 100 mg/kg QD and 30 mg/kg BID, within 10 days of dosing), the body weight lost entry is “greater than 20%”.
